What was measured:
Hh-signalling cascade = assay: Inhibition of SHh-induced alkaline phosphatase in C3H10T1/2 cells (Hh-signalling cascade inhibition); type: cell-based; settings: Mus musculus, C3H 10T1/2, half maximal inhibition of SHh (0.3 μg/ml) stimulation of cell alkaline phosphatase
Description: C3H10T1/2 Cells were used for identification of inhibitors of SHh-protein signaling cascade. SHh-protein activates C3H10T1/2 cells, that leads to their osteogenic differentiation [1) Kinto N., Iwamoto M., Enomoto-Iwamoto M., Noji S., Ohuchi H., Yoshioka H., Kataoka H., Wada Y., Yuhao G., Takahashi H. E., Yoshiki S., Yamaguchi A. Fibroblasts expressing Sonic hedgehog induce osteoblast differentiation and ectopic bone formation. FEBS Lett. 1997; 404(2-3): 319-23. 2) Spinella-Jaegle S., Rawadi G., Kawai S., Gallea S., Faucheu C., Mollat P., Courtois B., Bergaud B., Ramez V., Blanchet A. M., Adelmant G., Baron R., Roman-Roman S. Sonic hedgehog increases the commitment of pluripotent mesenchymal cells into the osteoblastic lineage and abolishes adipocytic differentiation. J. Cell Sci. 2001; 114(Pt 11): 2085-94] and, in particular, to expression enhancement of alkaline phosphatase enzyme.
The cells were cultivated in DMEM medium with 10% embryonal calfish serum in incubator at 37° C., 100% humidity and 5% CO2 content. The cells were placed in 384-well plates and left for night. On the next day the tested compounds in concentration of 10 μM were added to the cells, incubated for 30 min, then recombinant (R & D Systems, USA) SHh protein in concentration of 0.3 μg/ml was added and incubation was continued for 3 days. Cells with DMSO instead of a test compound and cells without SHh protein were used as test control. For determination of the cell alkaline phosphatase activity the cells were lysed in the buffer containing 0.2% Triton-X100, lisates were incubated together with proluminescent substrate CSPD (Applied Biosystems, USA) and the resultant luminescence was measured using reader VICTOR^2V (PerkinElmer, USA).
The ability of the compounds to inhibit Hh-signalling cascade was determined using C3H10T1/2 cells in 384-well plates as described in example 1. The compounds were added in triplicates in various concentrations, prepared by multiple dilution of starting solutions (concentration dependences of cell alkaline phosphatase inhibition induced by the addition of tested compounds are shown in FIG. 1). Activity of the compounds was characterized by their concentrations produced half maximal inhibition of stimulation of cell alkaline phosphatase SHh (IC50).

Row | IC50 (Hh-signalling cascade) | melting point | SMILES
1 | < 5000 nM | 200 to 202 °C | CCOc1ccc(NC(=O)c2ccnc(N3CCC(C(=O)Nc4cccc(SC)c4)CC3)c2)cc1 [VI-1004]
2 | < 5000 nM | 243 to 245 °C | CCOc1ccc(NC(=O)c2ccnc(N3CCC(C(=O)Nc4ccc(C(C)C)cc4)CC3)c2)cc1 [VI-1005, 3,4,5,6-Tetrahydro-2H-[1,2′]bipyridinyl-4,4′-carboxylic acid 4′-[(4-ethoxyphenyl)amide] 4-[(4-isopropylphenyl)amide]]
3 | < 5000 nM | 235 to 237 °C | CCOc1ccc(NC(=O)c2ccnc(N3CCC(C(=O)Nc4ccc(C)c(C)c4)CC3)c2)cc1 [VI-1002, 3,4,5,6-Tetrahydro-2H-[1,2′]bipyridinyl-4,4′-carboxylic acid 4-[(3,4-dimethylphenyl)amide] 4′-[(4-ethoxyphenyl)amide]]
4 | < 500 nM | 203 to 205 °C | CCOc1ccc(NC(=O)c2ccnc(N3CCC(C(=O)NCCCc4ccccc4)CC3)c2)cc1 [VI-1001, 3,4,5,6-Tetrahydro-2H-[1,2]bipyridinyl-4,4′-carboxylic acid 4′-[(4-ethoxyphenyl)amide] 4-[(3-phenylpropyl)amide]]
5 | < 5000 nM | 182 to 184 °C | CCOc1ccc(NC(=O)c2ccnc(N3CCC(C(=O)Nc4ccccc4OC)CC3)c2)cc1 [VI-1006, 3,4,5,6-Tetrahydro-2H-[1,2′]bipyridinyl-4,4′-carboxylic acid 4′-[(4-ethoxyphenyl)amide] 4-[(2-methoxyphenyl)amide]]
6 | < 5000 nM | 250 to 252 °C | CCOc1ccc(NC(=O)c2ccnc(N3CCC(C(=O)Nc4cc(C)cc(C)c4)CC3)c2)cc1 [VI-1003, 3,4,5,6-Tetrahydro-2H-[1,2′]bipyridinyl-4,4′-carboxylic acid 4-[(3,5-dimethylphenyl)amide] 4′-[(4-ethoxyphenyl)amide]]
7 | < 500 nM | – | Cc1nn(-c2ccccc2)c2c1N(CCCC(=O)N1CCN(c3ccccn3)CC1)C(=O)CS2 [II-1025, 3-Methyl-4-[4-oxo-4-((4-pyridin-2-yl)piperazin-1-yl)butyl]-1-phenyl-1,4-dihydropyrazolo[3,4-b][1,4]thiazin-5-one]
8 | < 50000 nM | – | CCC(=O)Nc1ccc(-c2cn3ccccc3n2)cc1 [III-1002, N-(4-(Imidazo[1,2-a]pyridin-2-yl)phenyl)propionamide]
9 | < 50000 nM | – | COC(=O)c1ccc(C(=O)Nc2sc3c(c2-c2nc4ccccc4s2)CCN(C(C)C)C3)cc1 [VIII-1025]
10 | < 500 nM | – | COc1cccc(C(=O)Nc2ccc(-c3cn4ccccc4n3)cc2)c1 [III-1001, N-(4-(Imidazo[1,2-a]pyridin-2-yl)phenyl)-3-methoxybenzamide]
11 | < 5000 nM | – | COc1ccc(C(=O)Nc2ccc(-c3cn4ccccc4n3)cc2)cc1 [III-1006, N-(4-(Imidazo[1,2-a]pyridin-2-yl)phenyl)-4-methoxybenzamide]
12 | < 500 nM | – | COc1ccccc1C(=O)Nc1ccc(-c2cn3cccnc3n2)cc1 [IV-1004, N-(4-(Imidazo[1,2-a]pyrimidin-2-yl)phenyl)-2-methoxybenzamide]
13 | < 50000 nM | – | O=C(Nc1ccc(-c2cn3cccnc3n2)cc1)C1CCCC1 [IV-1002, Cyclopentanecarboxylic acid (4-imidazo[1,2-a]pyrimidin-2-ylphenyl)amide]
14 | < 5000 nM | – | Cc1ccc(NC(=O)c2ccc3c(c2)CCCN3S(=O)(=O)c2ccc(Br)cc2)cc1 [VII-1020, 1-(4-Bromophenylsulfonyl)-1,2,3,4-tetrahydroquinoline-6-carboxylic acid p-tolylamide]

Second part, the compound before the results:

Row | SMILES | IC50 (Hh-signalling cascade) | melting point
15 | Cc1cccc(N2CCN(C(=O)C(C)n3nc(C)c4c(C)n(-c5ccccc5)nc4c3=O)CC2)c1C (stereo not drawn) [I-1011, 2-Phenyl-3,4-dimethyl-6-{1-methyl-2-[4-(2,3-dimethylphenyl)piperazin-1-yl]-2-oxoethyl}-2,6-dihydro-7H-pyrazolo[3,4-d]pyridazin-7-one] | < 500 nM | 136 to 138 °C
16 | O=C(c1cc2sccc2n1Cc1ccc(F)cc1)N1CCC(C(=O)N2CCOCC2)CC1 [V-1001, [4-(4-Fluorobenzyl)-4H-thieno[3,2-b]pyrrol-5-yl][4-(morpholine-4-carbonyl)piperidin-1-yl]methanone] | < 500 nM | 120 to 122 °C
17 | Cc1nn(CC(=O)N2CCN(c3cccc(Cl)c3)CC2)c(=O)c2nn(-c3ccccc3)c(C)c12 [I-1002, 2-phenyl-3,4-dimethyl-6-{2-[4-(3-chlorophenyl)piperazin-1-yl]-2-oxoethyl}-2,6-dihydro-7H-pyrazolo[3,4-d]pyridazin-7-one] | < 500 nM | 257 to 259 °C
18 | Cc1nn(C(C)C(=O)N2CCN(c3cccc(Cl)c3)CC2)c(=O)c2nn(-c3ccccc3)c(C)c12 (stereo not drawn) [I-1009, 2-Phenyl-3,4-dimethyl-6-{1-methyl-2-[4-(3-chlorophenyl)piperazin-1-yl]-2-oxoethyl}-2,6-dihydro-7H-pyrazolo[3,4-d]pyridazin-7-one] | < 500 nM | 194 to 196 °C
19 | Cc1cc(C)cc(NC(=O)C2CCN(C(=O)c3cc4sccc4n3Cc3ccc(F)cc3)CC2)c1 [V-1002, 1-[4-(4-Fluorobenzyl)-4H-thieno[3,2-b]pyrrole-5-carbonyl]piperidine-4-carboxylic acid (3,5-dimethylphenyl)amide] | < 500 nM | 203 to 205 °C
20 | Cc1nn(CC(=O)N2CCN(c3ccccc3F)CC2)c(=O)c2nn(-c3ccccc3)c(C)c12 [I-1007, 2-Phenyl-3,4-dimethyl-6-{2-[4-(2-fluorophenyl)piperazin-1-yl]-2-oxoethyl}-2,6-dihydro-7H-pyrazolo[3,4-d]pyridazin-7-one] | < 500 nM | 240 to 242 °C
21 | Cc1nn(C(C)C(=O)N2CCN(c3ccccc3)CC2)c(=O)c2nn(-c3ccccc3)c(C)c12 (stereo not drawn) [I-1008, 2 Phenyl-3,4-dimethyl-6-[1-methyl-2-(4-phenylpiperazin-1-yl)-2-oxoethyl]-2,6-dihydro-7H-pyrazolo[3,4-d]pyridazin-7-one] | < 500 nM | 193 to 195 °C
22 | Cc1cccc(N2CCN(C(=O)Cn3nc(C)c4c(C)n(-c5ccccc5)nc4c3=O)CC2)c1C [I-1004, 2-Phenyl-3,4-dimethyl-6-{2-[4-(2,3-dimethylphenyl)piperazin-1-yl]-2-oxoethyl}-2,6-dihydro-7H-pyrazolo[3,4-d]pyridazin-7-one] | < 500 nM | 249 to 251 °C
23 | O=C(NCc1cccnc1)C1CCN(C(=O)c2cc3sccc3n2Cc2ccc(F)cc2)CC1 [V-1031] | < 5000 nM | –
24 | COCCCNC(=O)C1CCN(C(=O)c2cc3sccc3n2Cc2ccc(Cl)cc2)CC1 [V-1047, 1-[4-(4-Chlorobenzyl)-4H-thieno[3,2-b]pyrrole-5-carbonyl]piperidine-4-carboxylic acid (3-methoxypropyl)amide] | < 500 nM | –
25 | CCn1c(C(=O)N2CCC(C(=O)N3CCN(c4ccccc4)CC3)CC2)cc2sccc21 [V-1008, (4-Ethyl-4H-thieno[3,2-b]pyrrol-5-yl)[4-(4-phenyl-piperazine-1-carbonyl)piperidine-1-yl]methanone] | < 50000 nM | –
26 | CN1CCN(C(=O)C2CCN(C(=O)c3cc4sccc4n3Cc3ccccc3Cl)CC2)CC1 [V-1052, [4-(2-Chlorobenzyl)-4H-thieno[3,2-b]pyrrol-5-yl]-[4-(4-methylpiperazine-1-carbonyl)piperidin-1-yl]methanone] | < 500 nM | –
27 | Cc1nn(CCCC(=O)N2CCOCC2)c(=O)c2nn(-c3ccccc3)c(C)c12 [I-1025, 2-Phenyl-3,4-dimethyl-6-[4-(morpholin-4-yl)-4-oxobutyl]-2,6-dihydro-2H-pyrazolo[3,4-c]pyridazin-7-one] | < 50000 nM | –
28 | CN1CCN(C(=O)C2CCN(C(=O)c3cc4sccc4n3Cc3cccc(F)c3)CC2)CC1 [V-1050, [4-(3-Fluorobenzyl)-4H-thieno[3,2-b]pyrrol-5-yl]-[4-(4-methylpiperazine-1-carbonyl)piperidin-1-yl]methanone] | < 500 nM | –
29 | O=C(NCCN1CCOCC1)C1CCN(C(=O)c2cc3sccc3n2Cc2ccc(F)cc2F)CC1 [V-1041, 1-[4-(2,4-Difluorobenzyl)-4H-thieno[3,2-b]pyrrole-5-carbonyl]piperidine-4-carboxylic acid (2-N-morpholinoethyl)amide] | < 500 nM | –
30 | Cc1nn(CCC(=O)NCc2ccco2)c(=O)c2nn(-c3ccccc3)c(C)c12 [I-1020, 3-(2-Phenyl-3,4-dimethyl-7-oxo-2,7-dihydro-6H-pyrazolo[3,4-c]pyridazin-6-yl)-N-(furan-2-ylmethyl)propanamide] | < 5000 nM | –
31 | Cc1nn(CCC(=O)N2CCOCC2)c(=O)c2nn(-c3ccccc3)c(C)c12 [I-1021, 2-Phenyl-3,4-dimethyl-6-(3-(morpholin-4-yl)-3-oxopropyl)-2,6-dihydro-7H-pyrazolo[3,4-c]pyridazin-7-one] | < 5000 nM | –
